In data set [1] the test system is MCF-7. The data set can be described thus: MTT cytotoxicity assay, MCF-7. Conditions: MCF-7 tumor cell line, 72 h, 0.04 μM to 40 μM.
Data set [2] deals with JIMT-1. The data set can be described thus: MTT cytotoxicity assay, JIMT-1. Conditions: JIMT-1 tumor cell line, 72 h, 0.04 μM to 40 μM. (In general: Formazan colour is commonly taken as a measure of viable cells.)
Data set [3] has as its system MCF-10A. The data set can be described thus: MTT cytotoxicity assay, MCF-10A. Particulars: MCF-10A normal cell line, 72 h, 0.04 μM to 40 μM.
In data set [4] the target is T1, Human galectin-1 (Homo sapiens, UniProt P09382). The data set is described as follows: Competitive fluorescence polarization, galectin-1 (performed as described in ref 13). Conditions: for Galectin-3/galectin-1: ratio of Kd values, Table 1 (monogalactosides).
T1 sequence (P09382 whole entry): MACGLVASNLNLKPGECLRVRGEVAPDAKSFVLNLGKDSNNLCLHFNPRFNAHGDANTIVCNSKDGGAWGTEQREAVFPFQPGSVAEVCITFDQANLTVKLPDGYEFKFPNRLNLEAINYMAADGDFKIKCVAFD
Data set [5] has as its target T2, galectin-3 (Homo sapiens, UniProt P17931). The data set is described as follows: Competitive fluorescence polarization, galectin-3 (performed as described in ref 13).
For data set [6], the system named is JIMT-1.
Data set [7] has as its system MCF-7.
In data set [8] the test system is MCF-10A.
The target in data set [9] is T1, Human galectin-1. The data set is described as follows: Competitive fluorescence polarization, galectin-1 with high-affinity fluorescent probe 25. The data set is classed as binding. Set-up: made in house. Particulars: for Kd / Kd Galectin-1: galectin-1 50 nM, probe 25 1 nM, 100 nM BSA, rt, average ± SEM; for Galectin-3/galectin-1: ratio of Kd values, Table 2 (thiodigalactosides), galectin-1 selectivity over galectin-3.

In data set [10] the target is T2, galectin-3. The data set is described as follows: Competitive fluorescence polarization, galectin-3 with improved-affinity probe (as described in ref 15). On the set-up: made in house. Particulars: average ± SEM. The data set is classed as binding.

Molecules are shown by their SMILES. Read-outs that look alike come from different tables or passages of the source.

T2 sequence (P17931 whole entry): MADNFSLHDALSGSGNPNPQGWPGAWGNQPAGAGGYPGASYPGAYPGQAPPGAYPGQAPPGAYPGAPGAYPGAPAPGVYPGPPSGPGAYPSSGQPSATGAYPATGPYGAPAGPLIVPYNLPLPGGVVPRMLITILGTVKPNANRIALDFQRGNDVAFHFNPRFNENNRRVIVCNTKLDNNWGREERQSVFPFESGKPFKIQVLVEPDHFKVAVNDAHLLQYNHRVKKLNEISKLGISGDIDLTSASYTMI

Regarding `O=C(O)CS[C@@H]1O[C@H](CO)[C@H](O)[C@H](n2cc(-c3cscn3)nn2)[C@H]1O` [compound 14, Carboxymethyl 3-deoxy-3-[4-(thiazol-4-yl)-1H-1,2,3-triazol-1-yl]-1-thio-β-D-galactopyranoside], the Cytotoxicity result in [1], in data set [2] and in data set [3] was “non-cytotoxic” each time. Further, the Kd was determined as 62 ± 2 µM in data set [4] and 540 ± 30 µM in data set [5]. In addition, in [4], the Galectin-3/galectin-1 is reported as 8.7.

With `O=C(O)CS[C@@H]1O[C@H](CO)[C@H](O)[C@H](n2cc(-c3nccs3)nn2)[C@H]1O` [compound 13, Carboxymethyl 3-deoxy-3-[4-(thiazol-2-yl)-1H-1,2,3-triazol-1-yl]-1-thio-β-D-galactopyranoside], the Cytotoxicity result in data set [1], in [2] and in data set [3] was “non-cytotoxic” in each case. Besides, the Kd in data set [4] came out at 43 ± 2 µM; in [5], 280 ± 7 µM.

Turning to `Cc1ccc(S[C@@H]2O[C@H](CO)[C@H](O)[C@H](n3cc(-c4c[nH]cn4)nn3)[C@H]2O)cc1` [compound 9, p-Methylphenyl 3-deoxy-3-[4-(1H-imidazol-4-yl)-1H-1,2,3-triazol-1-yl]-1-thio-β-D-galactopyranoside], in data set [4], the Kd was found to be 140 ± 7 µM and the Galectin-3/galectin-1 amounted to 2.4.

On to `Cc1ccc(S[C@@H]2O[C@H](CO)[C@H](O)[C@H](n3cc(-c4ccsc4)nn3)[C@H]2O)cc1` [compound 7, p-Methylphenyl 3-deoxy-3-[4-(thien-3-yl)-1H-1,2,3-triazol-1-yl]-1-thio-β-D-galactopyranoside], for which the Cytotoxicity entry in data set [6], in data set [7] and in data set [8] was “non-cytotoxic” throughout. Further, the Kd in [4] was found to be 47 ± 2 µM.

For the compound `Cc1ccc(S[C@@H]2O[C@H](CO)[C@H](O)[C@H](n3cc(-c4ncc[nH]4)nn3)[C@H]2O)cc1` [compound 8, p-Methylphenyl 3-deoxy-3-[4-(1H-imidazol-2-yl)-1H-1,2,3-triazol-1-yl]-1-thio-β-D-galactopyranoside], in data set [4], binding was put at a Kd of 47 ± 3 µM and the Galectin-3/galectin-1 was 4.7.

In data set [9], `OC[C@H]1O[C@@H](S[C@@H]2O[C@H](CO)[C@H](O)[C@H](n3cc(-c4ccsc4)nn3)[C@H]2O)[C@H](O)[C@@H](n2cc(-c3ccsc3)nn2)[C@H]1O` [compound 1] came in with a Kd of 6.1 ± 1 nM. The “Kd Galectin-1” value in data set [9] was “single-digit”. Further, the Cytotoxicity result in data set [1], in [2] and in data set [3] was “non-cytotoxic” throughout.

Regarding `OC[C@H]1O[C@@H](S[C@@H]2O[C@H](CO)[C@H](O)[C@H](n3cc(-c4nccs4)nn3)[C@H]2O)[C@H](O)[C@@H](n2cc(-c3nccs3)nn2)[C@H]1O` [compound 19, 1,1′-Sulfanediyl-bis-{3-deoxy-3-[4-(thiazol-2-yl)-1H-1,2,3-triazol-1-yl]-β-D-galactopyranoside}], binding in data set [9] was put at a Kd of 8.4 ± 1 nM. Further, the “Kd Galectin-1” value in data set [9] is given as “single-digit”. The Cytotoxicity result in data set [1], in data set [2] and in [3] was “non-cytotoxic” in each case.

With `OC[C@H]1O[C@@H](S[C@@H]2O[C@H](CO)[C@H](O)[C@H](n3cc(-c4ncc[nH]4)nn3)[C@H]2O)[C@H](O)[C@@H](n2cc(-c3ncc[nH]3)nn2)[C@H]1O` [compound 20, 1,1′-Sulfanediyl-bis-{3-deoxy-3-[4-(1H-imidazol-2-yl)-1H-1,2,3-triazol-1-yl]-β-D-galactopyranoside}], in data set [9], the “Increased galectin-1 selectivity compared to corresponding monogalactoside” value was found to be 2 fold, the “Lower affinity for galectin-1 than thiophene 1” value was determined as 4 fold, the Kd stood at 25 ± 2 nM and the Galectin-3/galectin-1 was found to be 7.2. The Kd in data set [10] is 180 ± 10 nM.

As to `Cc1ccc(S[C@@H]2O[C@H](CO)[C@H](O)[C@H](n3cc(-c4cccs4)nn3)[C@H]2O)cc1` [compound 6, p-Methylphenyl 3-deoxy-3-[4-(thien-2-yl)-1H-1,2,3-triazol-1-yl]-1-thio-β-D-galactopyranoside], the Cytotoxicity result in data set [6], in [7] and in [8] was “non-cytotoxic” in each case. Besides, the Kd in data set [4] was 61 ± 4 µM.

`O=C(O)CS[C@@H]1O[C@H](CO)[C@H](O)[C@H](n2cc(-c3cncs3)nn2)[C@H]1O` [compound 15, Carboxymethyl 3-deoxy-3-[4-(thiazol-5-yl)-1H-1,2,3-triazol-1-yl]-1-thio-β-D-galactopyranoside]: in [4], binding was characterised by a dissociation constant (Kd) of 180 ± 9 µM and the Galectin-3/galectin-1 was found to be 2.4. Further, the affinity in data set [5], expressed as Kd, was 430 ± 20 µM.

As to `Cc1ccc(S[C@@H]2O[C@H](CO)[C@H](O)[C@H](O)[C@H]2O)cc1` [compound 16, reference compound], in data set [4], the Galectin-3/galectin-1 turned out to be 0.2.

With `O=C(O)CS[C@@H]1O[C@H](CO)[C@H](O)[C@H](n2cc(-c3ccsc3)nn2)[C@H]1O` [compound 12, Carboxymethyl 3-deoxy-3-[4-(thien-3-yl)-1H-1,2,3-triazol-1-yl]-1-thio-β-D-galactopyranoside], the Cytotoxicity entry in data set [1], in data set [2] and in [3] was “non-cytotoxic” in each case. Moreover, the Kd was found to be 58 ± 4 µM in data set [4] and 200 ± 7 µM in data set [5]. Besides, in [4], the Galectin-3/galectin-1 is listed as 3.4.

In the case of `OC[C@H]1O[C@@H](S[C@@H]2O[C@H](CO)[C@H](O)[C@H](n3cc(-c4nccs4)nn3)[C@H]2O)[C@H](O)[C@@H](n2cc(-c3ccc(F)c(F)c3)nn2)[C@H]1O` [compound 23, 3,3′-Dideoxy-3′-[4-(3,4-difluorophenyl)-1H-1,2,3-triazol-1-yl]-3-[4-(thiazol-2-yl)-1H-1,2,3-triazol-1-yl]-1,1′-sulfanediyl-di-β-D-galactopyranoside], in data set [9], the Kd stood at 13 ± 1 nM and the Galectin-3/galectin-1 was determined as 0.14. Besides, the affinity in data set [10], expressed as Kd, was 1.8 ± 0.2 nM.

For `O=C(O)CS[C@@H]1O[C@H](CO)[C@H](O)[C@H](O)[C@H]1O` [compound 17, reference compound], in [4], the Kd came out at 430 ± 40 µM and the Galectin-3/galectin-1 was found to be 4.2. The compound also came in with a Kd in data set [5] of 1800 ± 100 µM.

With `OC[C@H]1O[C@@H](S[C@@H]2O[C@H](CO)[C@H](O)[C@H](n3cc(-c4nccs4)nn3)[C@H]2O)[C@H](O)[C@@H](n2cc(-c3ccsc3)nn2)[C@H]1O` [compound 22, 3,3′-Dideoxy-3-[4-(thiazol-2-yl)-1H-1,2,3-triazol-1-yl]-3′-[4-(thien-3-yl)-1H-1,2,3-triazol-1-yl]-1,1′-sulfanediyl-di-β-D-galactopyranoside], in data set [9], the “Increased galectin-1 selectivity compared to corresponding monogalactoside” value amounted to 2 fold, binding was characterised by a dissociation constant (Kd) of 12 ± 1 nM and the Galectin-3/galectin-1 amounted to 5.1. Also, in data set [10], the Kd amounted to 61 ± 3 nM.

For the compound `Cc1ccc(S[C@@H]2O[C@H](CO)[C@H](O)[C@H](n3cc(C4CCCC4)nn3)[C@H]2O)cc1` [compound 4, p-Methylphenyl 3-deoxy-3-(4-cyclopentyl-1H-1,2,3-triazol-1-yl)-1-thio-β-D-galactopyranoside], in data set [4], the Kd came out at 370 ± 30 µM and the Galectin-3/galectin-1 turned out to be 2.6.

Consider `Cc1ccc(S[C@@H]2O[C@H](CO)[C@H](O)[C@H](n3cc(-c4ccoc4)nn3)[C@H]2O)cc1` [compound 5, p-Methylphenyl 3-deoxy-3-[4-(furan-3-yl)-1H-1,2,3-triazol-1-yl]-1-thio-β-d-galactopyranoside], for which, in data set [4], the Kd is 120 ± 7 µM and the Galectin-3/galectin-1 is on record as 2.1.

Usually Kd stands for the concentration at which binding is half-saturated. A low value points to higher affinity.

These data come from publication PMC9082524, “Aromatic heterocycle galectin-1 interactions for selective single-digit nM affinity ligands” (RSC Advances, 2018).
